Where a name gives a salt, the structure may show the parent alone.
tested on: platelet-rich plasma (PRP) platelets; assay: Platelet aggregation assay (agonist-induced aggregation in human platelet-rich plasma, aggregometer); assay type: cell-based; settings: inhibition of agonist-induced platelet aggregation, test compounds added prior to activation of the platelets
Protocol: Platelet Aggregation Assay:
Venous blood was obtained from the arm of a healthy human donor who was drug-free and aspirin-free for at least two weeks prior to blood collection. Blood was collected into 10 mL citrated Vacutainer tubes. The blood was centrifuged for 15 minutes at 150×g at room temperature, and platelet-rich plasma (PRP) was removed. The remaining blood was centrifuged for 15 minutes at 1500×g at room temperature, and platelet-poor plasma (PPP) was removed. Samples were assayed on a aggregometer (PAP-4 Platelet Aggregation Profiler), using PPP as the blank (100% transmittance). 200 μL of PRP was added to each micro test tube, and transmittance was set to 0%. 20 μL of various agonists (ADP, collagen, arachidonate, epinephrine, thrombin) were added to each tube, and the aggregation profiles were plotted (% transmittance versus time). The results are expressed as % inhibition of agonist-induced platelet aggregation. For the IC50 evaluation, the test compounds were added at various concentrations prior to the activation of the platelets.

Row | Structure (SMILES) | IC50
1 | CCOC(=O)C(CNC(=O)c1cccc(COc2ccc(C(=N)N)cc2)c1)NC(=O)OCc1ccccc1 (stereo not shown) [Example 110] | 10 to 50 µM
2 | O=C(O)CC1CCCCCN1C(=O)c1ccc(OCCCC2CCNCC2)cc1 (stereo not shown) [Example 481] | 10 to 50 µM
3 | COC(=O)[C@H](CNC(=O)c1cccc(COc2ccc(C(=N)N)cc2)c1)NC(=O)Cc1ccncc1 [Example 501a] | < 10 µM
4 | COC(=O)[C@H](CNC(=O)c1cccc(COc2ccc(C(=N)N)cc2)c1)NC(=O)Cc1ccccn1 [Example 500a] | < 10 µM
5 | COC(=O)[C@H](CNC(=O)c1cccc(COc2ccc(C(=N)N)cc2)c1)NC(=O)CCc1ccccc1 [Example 6a, Methyl N^2-(3-phenylpropionyl)-N^3-(3-(4-amidinophenyloxymethyl)benzoyl)-L-2,3-diaminopropionate TFA salt] | < 10 µM
6 | COC(=O)[C@H](CNC(=O)c1cccc(COc2ccc(C(=N)N)cc2)c1)NC(=O)c1ccncc1 [Example 20a] | < 10 µM
7 | COC(=O)[C@H](CNC(=O)c1cccc(COc2ccc(C(=N)N)cc2)c1)NS(=O)(=O)c1ccc(C)cc1 [Example 16a, Methyl N^2-p-toluenesulfonyl-N^3-(3-(4-amidinophenyloxymethyl)benzoyl)-L-2,3-diaminopropionate TFA salt] | 10 to 50 µM
8 | CCCCS(=O)(=O)N[C@@H](CNC(=O)c1cccc(COc2ccc(C(=N)N)cc2)c1)C(=O)O [Example 14, N^2-1-butanesulfonyl-N^3-(3-(4-amidinophenyloxymethyl)benzoyl)-2,3-diaminopropionic acid TFA salt] | < 10 µM
9 | N=C(N)c1ccc(OCc2cccc(C(=O)NC[C@H](NC(=O)OCc3ccccc3)C(=O)O)c2)cc1 [Example 53, N^2 -Cbz-N^3-(3-(4-amidinophenyloxymethyl)benzoyl)-L-2,3-diaminopropionic acid TFA salt] | < 10 µM
10 | COC(=O)[C@H](CNC(=O)c1cccc(COc2ccc(C(=N)N)cc2)c1)NC(=O)Cc1cccnc1 [Example 119a, Methyl-N^2-3-pyridylacetoyl-N^3-[3-(4-amidinophenyloxymethyl)benzoyl]-L-2,3-diaminopropionate] | < 10 µM
11 | O=C(O)CCNC(=O)c1ccc(OCCCC2CCNCC2)cc1 [Example 84b, TFA salt] | < 10 µM
12 | CC(CC(=O)O)NC(=O)c1cccc(COc2ccc(C(=N)N)cc2)c1 (racemic) [Example 85, N-(3-(4-Amidinophenyloxymethyl)benzoyl)-DL-3-aminobutyric acid TFA salt] | < 10 µM
13 | Cc1ccc(S(=O)(=O)N[C@@H](CNC(=O)c2cccc(COc3ccc(C(=N)N)cc3)c2)C(=O)O)cc1 [Example 16, N^2-p-toluenesulfonyl-N^3-(3-(4-amidinophenyloxymethyl)benzoyl)-L-2,3-diaminopropionic acid TFA salt] | < 10 µM
14 | N=C(N)c1ccc(OCc2cccc(C(=O)NCCC(=O)O)c2)cc1 [Example 27, N-(3-(4-amidinophenyloxymethyl)benzoyl)-3-aminopropionic acid TFA salt] | < 10 µM
15 | O=C(O)CCNC(=O)c1cccc(OCCCC2CCNCC2)c1 [Example 84a] | < 10 µM
16 | CCCCOC(=O)N[C@@H](CNC(=O)c1cc(OCc2ccc(C(=N)N)cc2)no1)C(=O)O [Example 123, N^2-n-butyloxycarbonyl-N^3-[3-(4-amidinobenzyloxy)-5-isoxazolecarbonyl]-L-2,3-diaminopropionate TFA salt] | < 10 µM
17 | CCCCOC(=O)N[C@@H](CNC(=O)c1cc(OCC2CCN(C(=N)N)CC2)no1)C(=O)OC [Example 479, Methyl N^2-n-butyloxycarbonyl-N-[3-(N-amidino-4-piperidinylmethoxy)-5-isoxazolecarbonyl]-L-2,3-diaminopropionate TFA salt] | < 10 µM
18 | N=C(N)c1ccc(COc2cccc(C(=O)NC(CC(=O)O)C(F)(F)F)c2)cc1 (racemic) [Example 92, N-(3-(4-amidinobenzyloxy)benzoyl)-DL-3-amino-4,4,4-trifluorobutyric acid TFA salt] | 51 to 100 µM
19 | CCCCOC(=O)N[C@@H](CNC(=O)c1cc(OCc2ccc(C(=N)N)cc2)no1)C(=O)OC [Example 142, Methyl N^2-n-butyloxycarbonyl-N^3-[3-(4-amidinobenzyloxy)-5 isoxazolecarbonyl]-L-2,3-diaminopropionate TFA salt] | < 10 µM
20 | CCCCOC(=O)N[C@@H](CNC(=O)c1cccc(COc2ccc(C(=N)N)cc2)c1)C(=O)OC [Example 3a, Methyl N-^2-1-butyloxycarbonyl-N^3-(3-(4-amidinophenyloxymethyl)benzoyl)-L-2,3-diaminopropionate TFA salt] | < 10 µM
21 | O=C(O)CC1CCCCN1C(=O)c1ccc(OCCCC2CCNCC2)cc1 (stereo not shown) [Example 480] | 10 to 50 µM
22 | COC(=O)[C@H](CNC(=O)c1cccc(COc2ccc(C(=N)N)cc2)c1)NC(=O)c1ccccn1 [Example 18a] | < 10 µM
23 | COC(=O)[C@H](CNC(=O)c1cccc(COc2ccc(C(=N)N)cc2)c1)NC(=O)c1cccnc1 [Example 19a, Methyl-N^2-nicotinoyl-N^3-[3-(4-amidinophenyloxymethyl)benzoyl]-L-2,3-diaminopropionate, TFA salt] | < 10 µM
24 | O=C(O)CC1CCCCN1C(=O)c1ccc(OCCC2CCNCC2)cc1 (stereo not shown) [Example 482] | 51 to 100 µM
25 | CC(CC(=O)O)NC(=O)c1cccc(OCc2ccc(C(=N)N)cc2)c1 (racemic) [Example 91, N-(3-(4-amidinobenzyloxy)benzoyl)-DL-3-aminobutyric acid TFA salt] | < 10 µM
